Assay results: the supplement of paper PMC13380429
± gives the standard deviation of the averaged measurements.

Legend:
Settings in all cases: 72 h
Vero E6 [1] = experiment: cell viability relative to DMSO; higher = less toxic
U2OS [2] = experiment: as above
Calu-3 [3] = experiment: as above
HepG2 [4] = experiment: as above
Caco-2 [5] = experiment: as above
Vero E6 [6] = experiment: drug sensitivity score (DSS) for viability; higher = more toxic; extreme values may be limits of the assay
U2OS [7] = experiment: as above
Calu-3 [8] = experiment: as above
HepG2 [9] = experiment: as above
Caco-2 [10] = experiment: as above
Vero E6 [11] = experiment: relative viability EC50 (midpoint between 100% and the lowest measured viability); higher = less toxic
U2OS [12] = experiment: as above
Calu-3 [13] = experiment: as above
HepG2 [14] = experiment: as above
Caco-2 [15] = experiment: as above

Structure (SMILES)	cell viability (Vero E6 [1]; 1 nM)	cell viability (Vero E6 [1]; 10 nM)	cell viability (Vero E6 [1]; 100 nM)	cell viability (Vero E6 [1]; 1000 nM)	cell viability (Vero E6 [1]; 10000 nM)	cell viability (U2OS [2]; 1 nM)	cell viability (U2OS [2]; 10 nM)	cell viability (U2OS [2]; 100 nM)	cell viability (U2OS [2]; 1000 nM)	cell viability (U2OS [2]; 10000 nM)	cell viability (Calu-3 [3]; 1 nM)	cell viability (Calu-3 [3]; 10 nM)	cell viability (Calu-3 [3]; 100 nM)	cell viability (Calu-3 [3]; 1000 nM)	cell viability (Calu-3 [3]; 10000 nM)	cell viability (HepG2 [4]; 1 nM)	cell viability (HepG2 [4]; 10 nM)	cell viability (HepG2 [4]; 100 nM)	cell viability (HepG2 [4]; 1000 nM)	cell viability (HepG2 [4]; 10000 nM)	cell viability (Caco-2 [5]; 1 nM)	cell viability (Caco-2 [5]; 10 nM)	cell viability (Caco-2 [5]; 100 nM)	cell viability (Caco-2 [5]; 1000 nM)	cell viability (Caco-2 [5]; 10000 nM)	drug sensitivity score (Vero E6 [6])	drug sensitivity score (U2OS [7])	drug sensitivity score (Calu-3 [8])	drug sensitivity score (HepG2 [9])	drug sensitivity score (Caco-2 [10])	relative viability EC50 (Vero E6 [11])	relative viability EC50 (U2OS [12])	relative viability EC50 (Calu-3 [13])	relative viability EC50 (HepG2 [14])	relative viability EC50 (Caco-2 [15])
CN(CCc1ccc(Cl)c(Cl)c1)CCN1CCCC1 [BD-1008]	100%	96.2%	94.2%	95%	106%	97.4%	96.5%	97%	93.2%	93.3%	95.8%	98.5%	94.6%	96.9%	101%	91.5%	107%	104%	117%	106%	101%	96.7%	95.5%	93.8%	94.2%	0	0	0	0	0	> 10 µM	> 10 µM	> 10 µM	> 10 µM	> 10 µM
C[C@]12CC[C@H](O)CC1=CC[C@@H]1[C@@H]2CC[C@]2(C)C(=O)CC[C@@H]12 [PRASTERONE]	99.5%	101%	98.7%	98.7%	95.2%	97.4%	102%	102%	97.5%	100%	94.9%	81.2%	98.3%	96.6%	108%	104%	101%	94.2%	92.3%	92.2%	96.8%	99.4%	91.4%	100%	92.6%	0	0	0	0	0	> 10 µM	> 10 µM	> 10 µM	> 10 µM	> 10 µM
CCOc1ccc(Cc2cc([C@]34OC[C@](CO)(O3)[C@@H](O)[C@H](O)[C@H]4O)ccc2Cl)cc1 [ertugliflozin]	102%	104%	95.1%	101%	102%	101%	102%	102%	98.1%	101%	106%	99.1%	104%	98.7%	96.4%	108%	109%	107%	98.6%	98.6%	96.8%	96.9%	90.5%	89.9%	103%	0	0	0	0	0	> 10 µM	> 10 µM	> 10 µM	> 10 µM	> 10 µM
COC(=O)c1ccc(N2CCN(C)CC2)c(NC(=O)c2cccc(OC)c2)c1 [WDR5-0103]	94.6%	98.2%	94.2%	102%	103%	98.5%	94.8%	96.8%	95.5%	101%	98.9%	93.4%	99.5%	97.4%	97.8%	102%	114%	85.5%	112%	102%	88.8%	97.5%	91.7%	99.9%	89.8%	0	0	0	0	0	> 10 µM	> 10 µM	> 10 µM	> 10 µM	> 10 µM
CC(C)NC[C@@H](O)COc1ccc(CC(N)=O)cc1 (racemic) [atenolol-(+/-)]	103 ± 4.4%	85.3 ± 10%	105 ± 4.5%	92.4 ± 13%	97 ± 5.9%	98.2 ± 3.5%	96 ± 3%	100.1 ± 0.28%	97 ± 0.71%	99.1 ± 3.7%	94.2 ± 4.5%	101 ± 11%	96.5 ± 3.4%	97.8 ± 2.3%	102 ± 2.6%	101 ± 10%	92 ± 14%	98.9 ± 9.5%	96.2 ± 8.2%	99.2 ± 18%	99.8 ± 9.3%	99 ± 11%	105 ± 7%	88.3 ± 0.99%	92.1 ± 0.85%	0.1 ± 0.14	0	0	0.05 ± 0.071	0.25 ± 0.35	> 10 µM	> 10 µM	> 10 µM	> 10 µM	> 10 µM
CC[C@@H]1C(=O)N(C)c2cnc(Nc3ccc(C(=O)N[C@H]4CC[C@H](N5CCN(CC6CC6)CC5)CC4)cc3OC)nc2N1C(C)C [volasertib]	101%	98%	90.6%	18.3%	1.5%	99%	99.4%	87.2%	29.1%	18.7%	112%	86.8%	91.3%	83.3%	22.1%	106%	104%	42.7%	17.6%	9.1%	104%	93.2%	74%	57.8%	26.7%	16.3	14.7	7	23.2	11.5	0.386 µM	0.293 µM	1.67 µM	0.081 µM	0.36 µM
CC(C)N1Cc2cc(S(C)(=O)=O)ccc2N(CCN2CC=C(c3c[nH]c4cc(F)ccc34)CC2)S1(=O)=O	89.6%	97.7%	94.1%	94.7%	97.6%	99.9%	99.1%	103%	95.8%	95.2%	98.6%	99.3%	92.7%	107%	110%	99.9%	107%	95.8%	105%	100%	98.3%	98.8%	102%	91.2%	104%	0	0	0	0	0	> 10 µM	> 10 µM	> 10 µM	> 10 µM	> 10 µM
CCOc1ccc(-c2ccc(Cn3c(CC(C)(C)C(=O)O)c(SC(C)(C)C)c4cc(OCc5ccc(C)cn5)ccc43)cc2)cn1	98.6%	95.4%	90.1%	94%	76.1%	100%	106%	96.6%	97.8%	78.2%	107%	105%	111%	112%	99.9%	104%	104%	102%	86.2%	95.7%	98.4%	98.8%	105%	103%	88.9%	1.3	1	0	1	0	> 10 µM	> 10 µM	> 10 µM	> 10 µM	> 10 µM
NCC(=O)N1C[C@H](NC(=O)c2ccccc2)C[C@H]1C(=O)O [danegaptide]	101%	101%	93.8%	99.9%	106%	93.6%	93.6%	98.5%	101%	99.3%	98.6%	93.3%	101%	96.4%	91.1%	106%	102%	99.7%	101%	104%	98.3%	97.1%	90.7%	86.3%	107%	0	0	0	0	0	> 10 µM	> 10 µM	> 10 µM	> 10 µM	> 10 µM
NCCCCCCCCCCNS(=O)(=O)c1cccc2c(Cl)cccc12 [A-7]	97.3%	98.4%	95.2%	101%	94.7%	99.2%	106%	97.4%	99.8%	93.9%	97.8%	98.8%	96.5%	95.9%	95.1%	112%	102%	98.6%	108%	95.8%	108%	95.5%	107%	99.7%	97.3%	0	0	0	0	0	> 10 µM	> 10 µM	> 10 µM	> 10 µM	> 10 µM
O=S(=O)(Cc1ccccc1)Nc1ccc(-c2ccc3c(cnn3-c3ccc(F)cc3)c2)c(C(F)(F)F)c1 [GSK9027]	96%	94.2%	91.1%	95.2%	110%	94.7%	93.7%	100%	95.9%	93.7%	103%	105%	97.6%	92.2%	97.1%	96%	94.4%	95.3%	104%	86.3%	90.8%	98.6%	99.7%	97.7%	85.5%	0	0	0	0.1	0.4	> 10 µM	> 10 µM	> 10 µM	> 10 µM	> 10 µM
CC(C)=CCC[C@](C)(O)[C@@H]1CC=C(C)CC1 [levomenol]	94.6%	96.5%	99%	98.8%	108%	96.2%	100%	96.4%	104%	103%	97.9%	98.2%	97.2%	94.3%	100%	99.8%	100%	116%	98.1%	106%	101%	103%	82.6%	110%	95.1%	0	0	0	0	0	> 10 µM	> 10 µM	> 10 µM	> 10 µM	> 10 µM
OC(c1ccccc1)(c1ccccc1)C1CCNCC1 [azacyclonol]	105%	100%	102%	99.9%	99.9%	102%	99.2%	98.5%	102%	97.1%	88.6%	99.5%	90%	97%	101%	116%	91.6%	101%	97.8%	93%	93.6%	102%	97%	102%	93.6%	0	0	0	0	0	> 10 µM	> 10 µM	> 10 µM	> 10 µM	> 10 µM
CCCCCCCCCCCCCCCCCCCCCCO [docosanol]	108%	98.4%	98.2%	88.4%	104%	92.3%	96.2%	94.6%	98.6%	105%	87.6%	97.6%	96.4%	102%	96.5%	104%	100%	104%	93.2%	85.1%	95.8%	92.2%	99.5%	116%	82.1%	0	0	0	0.7	0.2	> 10 µM	> 10 µM	> 10 µM	> 10 µM	> 10 µM
CCCN(CCC)[C@@H]1CCc2c(OC)cccc2[C@@H]1C [UH-232-(+)]	95.9%	102%	96.5%	101%	100%	108%	106%	104%	101%	99.4%	102%	104%	103%	102%	95%	97.7%	103%	87.2%	102%	95.8%	95.6%	100%	97.1%	93.6%	92.7%	0	0	0	0	0	> 10 µM	> 10 µM	> 10 µM	> 10 µM	> 10 µM
